Structures can show the parent of a compound that is named as a salt. Where two headings read alike, the source gives them in different places.
Tests used:
[1] = target: recombinant human SOS1 polypeptide (amino acids 560-1049) (Homo sapiens (Human), UniProt Q07889); assay: biochemical; assay type: binding; details: read-out: Ki, Inhibition of Labeled Tracer Binding to SOS1
Procedure: The ability of a compound of Formula (I) to bind to SOS1 was measured using a HTRF displacement assay. […] After a 1-hour incubation at room temperature, the HTRF signal was measured using Clairostar plate reader (BMG Labtech) according to the manufacturer's instructions. Excitation filter EX-TR was used, and emission 1 was detected at 650-610 nm and emission 2 detected at 620-610 nm. The HTRF ratio was calculated using the formula: [emission 1/emission 2]*10000.
Background signals were calculated from well with a 10 μM inhibitor, known to inhibit 100% at that concentration. The background subtracted signals were converted to % binding relative to DMSO controls. Data were analyzed using XLFIT software (IDBS) using a Morrison equation for competitive binding and Ki's were generated compound of Formula (I).

pERK in MKN1 cells = assay: cells; assay type: cell-based; details: Homo sapiens
Procedure: The cells were incubated for approximately 0.5-1 hour with the compounds solubilized in DMSO at 37° C. Cells were immediately fixed by adding 50 μL of 4% formaldehyde to all wells in a fume hood and the plates were incubated for 20 minutes at room temperature. The formaldehyde was discarded from the plates and 150 μL of ice-cold methanol was added to permeabilize the cells for 10 minutes at −20° C. The methanol was discarded from each of the plates and any liquid remaining in the plate by tapping the plate against paper towels. […] The plates were incubated overnight at 4° C. on a shaker.
On Assay day 2, the primary antibody solution was removed. […] The secondary antibody solution as removed and each plate was washed with PBST 3× times. Any liquid remaining was discarded and the plate was imaged using the Licor Odyssey machine according to the manufacturer's instruction, using a set focus length at 3 mm and both 800 nm and 700 nm filters. The GAPDH normalized scan values for each well were divided by the average of vehicle wells to get the % of pERK inhibition. The IC50 values were then calculated with the Graph pad Prism software.

[2] = HTRF displacement, Cy5 labelled tracer, Morrison equation for competitive binding
[3] = MKN-1, pERK inhibition, In-Cell Western, MKN1 or H358 cells (Table 24 does not say which), 0.5-1 hour incubation, read-out: IC50

recombinant human SOS1 polypeptide (amino acids 560-1049), sequence (Q07889 560-1049): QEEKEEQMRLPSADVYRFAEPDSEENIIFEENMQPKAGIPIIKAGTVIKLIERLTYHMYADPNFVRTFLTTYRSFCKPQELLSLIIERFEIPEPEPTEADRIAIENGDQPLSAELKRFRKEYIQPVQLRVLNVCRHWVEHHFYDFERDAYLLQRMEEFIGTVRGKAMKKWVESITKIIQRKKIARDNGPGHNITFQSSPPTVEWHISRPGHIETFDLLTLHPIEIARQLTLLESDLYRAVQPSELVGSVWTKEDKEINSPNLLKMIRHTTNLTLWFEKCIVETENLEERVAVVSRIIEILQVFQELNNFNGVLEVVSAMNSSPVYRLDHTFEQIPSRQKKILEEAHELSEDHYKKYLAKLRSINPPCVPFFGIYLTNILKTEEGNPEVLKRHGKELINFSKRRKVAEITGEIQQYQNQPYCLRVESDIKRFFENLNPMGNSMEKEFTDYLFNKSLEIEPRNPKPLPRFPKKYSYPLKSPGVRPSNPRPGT

Row | SMILES | Ki [1, 2] [nM] | IC50 (pERK in MKN1 cells; [3]) [nM] | Ki [1] [nM] | IC50 (pERK in MKN1 cells; MKN-1) [nM]
1 | CNCc1c(F)cccc1-c1ccc([C@@H](C)Nc2nnc(C)c3cnc(N4CCOCC4)cc23)s1 [Example 6-13, (R)-N-(1-(5-(3-fluoro-2-((methylamino)methyl)phenyl)thiophen-2-yl)ethyl)-4-methyl-7-morpholinopyrido[3,4-d]pyridazin-1-amine] | 0.29 | 20 |  | 
2 | Cc1nnc(N[C@H](C)c2cc(F)cc(C(F)(F)F)c2)c2cc(N3CCOCC3)ncc12 [Example 6-14, (R)-N-(1-(3-fluoro-5-(trifluoromethyl)phenyl)ethyl)-4-methyl-7-morpholinopyrido[3,4-d]pyridazin-1-amine] | 5.51 | 320 |  | 
3 | Cc1nnc(N[C@H](C)c2cccc(C#N)c2)c2cc(N3CCOCC3)ccc12 [Example 6-15, (R)-3-(1-((4-methyl-7-morpholinophthalazin-1-yl)amino)ethyl)benzonitrile] | 12.6 | 172 |  | 
4 | Cc1nnc(N[C@H](C)c2cc(F)cc(C#N)c2)c2cc(N3CCOCC3)ncc12 [Example 6-17, (R)-3-fluoro-5-(1-((4-methyl-7-morpholinopyrido[3,4-d]pyridazin-1-yl)amino)ethyl)benzonitrile] | 56.5 | 412 |  | 
5 | Cc1c(Cl)cccc1[C@@H](C)Nc1nnc(C)c2cnc(N3CCOCC3)cc12 [Example 6-18, (R)-N-(1-(3-chloro-2-methylphenyl)ethyl)-4-methyl-7-morpholinopyrido[3,4-d]pyridazin-1-amine] | 317 | 3700 |  | 
6 | Cc1c([C@@H](C)Nc2nnc(C)c3ccc(OC4CCNCC4)cc23)cccc1C(F)(F)F [Example 7-2, (R)-4-methyl-N-(1-(2-methyl-3-(trifluoromethyl)phenyl)ethyl)-7-(piperidin-4-yloxy)phthalazin-1-amine] | 0.33 | 73 |  | 
7 | Cc1c([C@@H](C)Nc2nnc(C)c3ccc(O[C@H]4CCN(C)C4)cc23)cccc1C(F)(F)F [Example 7-5, 4-methyl-N-((R)-1-(2-methyl-3-(trifluoromethyl)phenyl)ethyl)-7-(((S)-1-methylpyrrolidin-3-yl)oxy)phthalazin-1-amine] | 0.82 | 110 |  | 
8 | Cc1c([C@@H](C)Nc2nnc(C)c3ccc(OC[C@@H]4CCCN4)cc23)cccc1C(F)(F)F [Example 7-6, 4-methyl-N-((R)-1-(2-methyl-3-(trifluoromethyl)phenyl)ethyl)-7-(((S)-pyrrolidin-2-yl)methoxy)phthalazin-1-amine] | 1.41 | 110 |  | 
9 | Cc1c([C@@H](C)Nc2nnc(C)c3ccc(OC[C@H]4CCCN4)cc23)cccc1C(F)(F)F [Example 7-7, 4-methyl-N-((R)-1-(2-methyl-3-(trifluoromethyl)phenyl)ethyl)-7-(((R)-pyrrolidin-2-yl)methoxy)phthalazin-1-amine hydrochloride salt] |  |  | 0.92 | 115
10 | CNCc1ccccc1-c1ccc([C@@H](C)Nc2nnc(C)c3ccc(C)cc23)s1 [Example 8-1, (R)-4,7-di methyl-N-(1-(5-(2-((methylamino)methyl)phenyl)thiophen-2-yl)ethyl)phthalazin-1-amine] | 1.38 | 164 |  | 
11 | CNCc1ccccc1-c1ccc([C@@H](C)Nc2nnc(C(F)(F)F)c3ccc(N4CCOCC4)cc23)s1 [Example 10-2, (R)—N-(1-(5-(2-((methylamino)methyl)phenyl)thiophen-2-yl)ethyl)-7-morpholino-4-(trifluoromethyl)phthalazin-1-amine] | 14.9 | 1370 |  | 
12 | Cc1c([C@@H](C)Nc2nnc(C)c3ccc(C4CCNC(=O)C4)cc23)cccc1C(F)(F)F (stereo partly drawn) [Example 10-3, 4-(1-methyl-4-(((R)-1-(2-methyl-3-(trifluoromethyl)phenyl)ethyl)amino)phthalazin-6-yl)piperidin-2-one] | 0.71 | 85 |  | 

— US11702418B2, “SOS1 inhibitors” (priority 2019, dated 2023)
